Measured values as given in patent US11692175B2, “Methods for generation of pluripotent and multipotent cells” (The USA, as represented by the Secretary, Dept. of Health …, priority 2012, dated 2023).

Columns and labels:
HUVEC [1] = test: Direct neural differentiation of HUVEC; format: cell-based, human
Protocol: (§1) Therefore, antisense suppression of CD47 is sufficient to induce reprogramming of primary endothelial cells of a mesodermal lineage into an ectodermal lineage.
(§2) A new vial of HUVEC at passage 1 was thawed and split in to two 25 cm^3 Nunc tissue culture flasks. One flask (P1) was treated with CD47-MO (2.5 μM). The other was kept as untreated. The HUVEC were transferred in to new Nunc tissue culture flask 75 cm^3 and cultured for 2 weeks using EGM2 medium. After 2 weeks, the HUVEC (untreated and CD47-MO treated) were assessed for generation of EBs, neural differentiation, and cardiomyocytes differentiation. […] Direct Neural Differentiation media: Equal numbers of HUVEC cells (untreated and cd47-mo) were cultured with neural basal media (same for mouse lung endothelial cells) for 6 days. […] After 6 days, the neural basal media was replaced with neural differentiation media (same used for mouse lung endothelial cells). None of the untreated HUVEC survived.

HUVEC [2] = test: MTS proliferation assay of treated HUVEC; format: cell-based, human
Protocol: Cell proliferation assays: Equal numbers of mouse lung endothelial cells from WT and CD47 (Passage 1) were plated in 96 well plates using RPMI+1% FBS. After 72 hours, net cell proliferation was assessed by the increase in formazan absorbance versus controls assessed at time 0 using Cell Titer 96R aqueous MTS kit (Promega, Madison, Wis.). DNA synthesis was measured using a BrdU Assay (EMD Biosciences, Billerica, Mass.).
Proliferative capacities of the treated HUVEC (CD47 morpholino, 7N3 peptide, or 604 control peptide) were assessed using MTS assays.

HUVEC [3] = test: Direct cardiomyocyte differentiation of HUVEC; format: cell-based, human
Protocol: Finally, equal numbers of HUVEC (untreated and cd47-mo treated at passage 1) were plated in 6-well plates with EGM2 media for 24 hours. The next day, EGM2 medium was replaced with cardiomyocyte differentiation media (Millipore). […] CD47-MO cells survived up to 10 days. Thus, antisense suppression of CD47 is sufficient to induce reprogramming of primary endothelial cells into cardiomyocyte lineage.

HUVEC [4] = test: EB formation of HUVEC in serum free medium; format: cell-based, human; conditions: after 3-6 days
Protocol: as §2

[5] = test system: WT splenic T cells from c-Myc-EGFP knock-in mice; test: c-Myc mRNA after CD47 morpholino knockdown in T cells; format: cell-based, mouse
Protocol: RNA extraction and Real Time PCR: Total RNA was extracted using TRIzol® reagent (Invitrogen, Rockville, Md.) 24-36 hours after transfection or as indicated. Harvested mouse tissues were frozen in liquid nitrogen or placed into RNA Later™ RNA Stabilization Reagent (Ambion, Life Technologies, Grand Island, N.Y.). Whole organs (lungs, spleen, kidney, testis, skeletal muscle, brain, heart, and liver) were homogenized in TRIzol® reagent, and RNA was isolated, cDNA was prepared using First Maxima First Strand cDNA Synthesis kit for RT-qPCR (Fermentas Life Sciences, Glen Burnie, Md.). Real Time PCR was performed using the primers listed herein as SEQ ID NOs: 3-34, and SYBR Green PCR master reaction mix (AB applied Sciences, Life Technologies, Grand Island, N.Y.) on an MJ Research OPTICON I instrument (Bio-Rad) with the following amplification program: 95° C. for 15 minutes, followed by 40 cycles of 95° C. for 15 seconds, 58° C. for 20 seconds, 72° C. for 25 seconds, and 7° C. for 1 minute. Melting curves were performed for each product from 30° C. to 95° C. reading every 0.5° C. with a 6-second dwell time. The fold changes in mRNA expression were calculated by normalizing to hypoxanthine phosphoribosyltransferase (HPRT1) and TATA-box binding protein associated factor (TAF9) for mouse tissues and endothelial cells, or β-2 microglobulin (B2M) mRNA levels for spleen and isolated splenocytes. […]

HUVEC [6] = test: Sustained proliferation / self-renewal of HUVEC in continuous culture; format: cell-based, human
Excerpt: Human umbilical vein endothelial cells (HUVEC), which express CD47, normally become senescent with repeated passage in tissue culture (FIG. 16A).
as §1

CD47 = test: In vivo morpholino knockdown of CD47 in WT mice; parameters: species or system mouse; conditions: for Oct4 mRNA level in spleen / Sox2 mRNA level in spleen / c-Myc mRNA level in spleen: at 48 hours, WT mice; for CD47 protein expression in vivo: intraperitoneal injection into WT mice
Protocol: RNA extraction and Real Time PCR: Total RNA was extracted using TRIzol® reagent (Invitrogen, Rockville, Md.) 24-36 hours after transfection or as indicated. Harvested mouse tissues were frozen in liquid nitrogen or placed into RNA Later™ RNA Stabilization Reagent (Ambion, Life Technologies, Grand Island, N.Y.). Whole organs (lungs, spleen, kidney, testis, skeletal muscle, brain, heart, and liver) were homogenized in TRIzol® reagent, and RNA was isolated, cDNA was prepared using First Maxima First Strand cDNA Synthesis kit for RT-qPCR (Fermentas Life Sciences, Glen Burnie, Md.). Real Time PCR was performed using the primers listed herein as SEQ ID NOs: 3-34, and SYBR Green PCR master reaction mix (AB applied Sciences, Life Technologies, Grand Island, N.Y.) on an MJ Research OPTICON I instrument (Bio-Rad) with the following amplification program: 95° C. for 15 minutes, followed by 40 cycles of 95° C. for 15 seconds, 58° C. for 20 seconds, 72° C. for 25 seconds, and 7° C. for 1 minute. Melting curves were performed for each product from 30° C. to 95° C. reading every 0.5° C. with a 6-second dwell time. The fold changes in mRNA expression were calculated by normalizing to hypoxanthine phosphoribosyltransferase (HPRT1) and TATA-box binding protein associated factor (TAF9) for mouse tissues and endothelial cells, or β-2 microglobulin (B2M) mRNA levels for spleen and isolated splenocytes. B2M was used for normalization of mRNA levels in human cells. Note that the total RNA yield per cell was higher for all CD47-null and CD47-deficient cells and tissues as compared to WT.
CD47 knockdown in T cells and in WT mice: A translation-blocking antisense morpholino oligonucleotide complementary to human and murine CD47 ([…]; SEQ ID NO: 35) and a 5-base mismatch control morpholino (CGTgACAGcCAcGACCgACTGCgCA; SEQ ID NO: 36) were obtained from GeneTools, LLC (Philomath, Oreg.) as previously described (Isenberg et al., Circ Res 100, 712-720, 2007). Primary T cells isolated from c-Myc EGFP knock-in mouse were transfected using morpholinos (2.5 μM) along with Endo-porter (GeneTools, LLC) delivery reagent according to manufacturer's instructions. Mice were treated by injection of 750 μl of 10 μM morpholino in saline as described (Maxhimer et al., Sci. Transl. Med. 1, 3ra7, 2009). Organs were harvested for mRNA isolation after 48 hours.

“CGTCACAGGCAGGACCCACTGCCCA (all phosphorodiamidate morpholino (PMO)) [CD47 morpholino]” was tested, and the “survival in neural basal media” value (HUVEC [1]; 6 days, CD47-MO 2.5 μM) was “survived better than untreated”, the “phenotype in neural differentiation media” value (HUVEC [1]; after 6 days neural basal media) was “exhibited neural phenotype” and the “appearance of cells with neuronal phenotypes” value (HUVEC [1]; direct transfer into neural differentiation medium) was “sporadic appearance of cells with neuronal phenotypes”. For the same sequence, the “survival in neural differentiation media” value (HUVEC [1]; numbers were low) was “up to 15 days”, the “proliferation (MTS)” value (HUVEC [2]; 3 weeks post-treatment, relative to control HUVEC) was “significantly increased proliferation” and the “proliferation (MTS)” value (HUVEC [2]; 6 days post-treatment) was “slight but not significant enhancement of proliferation”. The “survival in cardiomyocyte differentiation media” value (HUVEC [3]) was “up to 10 days”, the “survival and differentiation in cardiomyocyte differentiation media” value (HUVEC [3]; untreated HUVEC unable to survive after 3 days) was “survived and underwent differentiation” and the “cell aggregation in serum free medium” value (HUVEC [4]) was “formed different phenotype cell aggregation”. The “increase in c-Myc mRNA level” value ([5]; at 24 h, morpholino 2.5 μM) was 7 fold, the “c-Myc mRNA expression (FIG. 6A)” value ([5]; in words, legend says WT lung endothelial cells) was “increases” and the self-renewal (HUVEC [6]; antisense CD47 morpholino at 2.5 μM, one treatment) was “enabled self-renewal”. For the same sequence, the “proliferative response after second treatment” value (HUVEC [6]; second treatment, same concentration (2.5 μM)) was “enhanced proliferative response”, the “Oct4 mRNA level in spleen” value (CD47) was “induction” and the “Sox2 mRNA level in spleen” value (CD47) was “induction”. The “c-Myc mRNA level in spleen” value (CD47) was “induction”, the “Oct4 mRNA level in spleen” value (CD47; listed as CD47-MO) was “elevates” and the “Sox2 mRNA level in spleen” value (CD47; listed as CD47-MO) was “elevates”. The “c-Myc mRNA level in spleen” value (CD47; listed as CD47-MO) was “elevates”, the “CD47 protein expression in vivo” value (CD47) was “significantly decreased” and the “CD47 protein expression in vivo” value (CD47; listed as CD47-morpholino) was “knockdown”.
